Legend:
wild type HIV-1 = assay: microbe, parasite or virus in culture; type: cell-based, human immunodeficiency virus type 1 (HIV-1); details: Human immunodeficiency virus 1, Hela-JC53
HIV-1 K103N-L100I mutant = assay: microbe, parasite or virus in culture; type: cell-based, human immunodeficiency virus type 1 (HIV-1); details: Human immunodeficiency virus 1, HeLa, read-out: EC50 mutant K103N-L100I, mutant K103N-L100I

SMILES | EC50 (wild type HIV-1) | EC50 (HIV-1 K103N-L100I mutant)
Cc1cc(-c2ccnc3ccccc23)cc(C)c1Oc1nc(Nc2ccc(C#N)cc2)nc2ccn(C)c12 [Example 37] | 1 to 10 nM | > 10 nM
Cc1cc(-c2cccc3ncccc23)cc(C)c1Oc1nc(Nc2ccc(C#N)cc2)nc2ccn(C)c12 [Example 38, 4-(4-(2,6-Dimethyl-4-(quinolin-5-yl)phenoxy)-5-methyl-5H-pyrrolo[3,2-d]pyrimidin-2-ylamino) benzonitrile] | 1 to 10 nM | 1 to 10 nM
Cc1cc(-c2cccc3cnccc23)cc(C)c1Oc1nc(Nc2ccc(C#N)cc2)nc2ccn(C)c12 [Example 39, 4-(4-(4-(Isoquinolin-5-yl)-2,6-dimethylphenoxy)-5-methyl-5H-pyrrolo[3,2-d]pyrimidin-2-ylamino) benzonitrile] | > 10 nM | > 10 nM
Cc1cc(-c2cncc3ccccc23)cc(C)c1Oc1nc(Nc2ccc(C#N)cc2)nc2ccn(C)c12 [Example 40, 4-(4-(4-(Isoquinolin-4-yl)-2,6-dimethylphenoxy)-5-methyl-5H-pyrrolo[3,2-d]pyrimidin-2-ylamino) benzonitrile] | 1 to 10 nM | > 10 nM
Cc1cc(-c2cnc3ccccc3c2)cc(C)c1Oc1nc(Nc2ccc(C#N)cc2)nc2ccn(C)c12 [Example 41, 4-(4-(2,6-Dimethyl-4-(quinolin-3-yl)phenoxy)-5-methyl-5H-pyrrolo[3,2-d]pyrimidin-2-ylamino) benzonitrile] | 1 to 10 nM | > 10 nM
Cc1cc(-c2ccc(S(=O)(=O)N(C)C)cc2)cc(C)c1Oc1nc(Nc2ccc(C#N)cc2)nc2ccn(C)c12 [Example 42, 4′-(2-(4-Cyanophenylamino)-5-methyl-5H-pyrrolo[3,2-d]pyrimidin-4-yloxy)-N,N,3′,5′-tetramethylbiphenyl-4-sulfonamide] | 1 to 10 nM | > 10 nM
Cc1cc(-c2cccc3cccnc23)cc(C)c1Oc1nc(Nc2ccc(C#N)cc2)nc2ccn(C)c12 [Example 43, 4-(4-(2,6-Dimethyl-4-(quinolin-8-yl)phenoxy)-5-methyl-5H-pyrrolo[3,2-d]pyrimidin-2-ylamino) benzonitrile] | 1 to 10 nM | > 10 nM
Cc1cc(-c2ccc(C#N)cc2)cc(C)c1Oc1nc(Nc2ccc(C#N)cc2)nc2ccn(C)c12 [Example 44, 4′-(2-(4-Cyanophenylamino)-5-methyl-5H-pyrrolo[3,2-d]pyrimidin-4-yloxy)-3′,5′-dimethylbiphenyl-4-carbonitrile] | 1 to 10 nM | 1 to 10 nM
Cc1cc(-c2ccnn2C)cc(C)c1Oc1nc(Nc2ccc(C#N)cc2)nc2nc[nH]c12 [Example 47, 4-(6-(2,6-Dimethyl-4-(1-methyl-1H-pyrazol-5-yl)phenoxy)-7H-purin-2-ylamino)benzonitrile] | 1 to 10 nM | > 10 nM
Cc1cc(-c2ccncn2)cc(C)c1Oc1nc(Nc2ccc(C#N)cc2)nc2ccn(C)c12 [Example 48, 4-(4-(2,6-Dimethyl-4-(pyrimidin-4-yl)phenoxy)-5-methyl-5H-pyrrolo [3,2-d]pyrimidin-2-ylamino)benzonitrile] | 1 to 10 nM | 1 to 10 nM
COc1ccc(Cn2cnc3nc(Nc4ccc(C#N)cc4)nc(Oc4c(C)cc(-c5ccc(C(N)=O)cc5)cc4C)c32)cc1 [Example 49, 4′-(2-(4-Cyanophenylamino)-7-(4-methoxybenzyl)-7H-purin-6-yloxy)-3′,5′-dimethylbiphenyl-4-carboxamide] | 1 to 10 nM | > 10 nM
Cc1cc(-c2ccncc2)cc(C)c1Oc1nc(Nc2ccc(C#N)cc2)nc2c1cnn2C [Example 51, 4-(4-(2,6-Dimethyl-4-(pyridin-4-yl)phenoxy)-1-methyl-1H-pyrazolo[3,4-d]pyrimidin-6-ylamino) benzonitrile] | 1 to 10 nM | > 10 nM
Cc1cc(-c2ccc(S(N)(=O)=O)cc2)cc(C)c1Oc1nc(Nc2ccc(C#N)cc2)nc2c1ncn2C [Example 52, 4′-(2-(4-Cyanophenylamino)-9-methyl-9H-purin-6-yloxy)-3′,5′-dimethylbiphenyl-4-sulfonamide] | < 1 nM | 1 to 10 nM
Cc1cc(-c2ccc(N)cc2)cc(C)c1Oc1nc(Nc2ccc(C#N)cc2)nc2ccn(C)c12 [Example 54, 4-(4-(4′-Amino-3,5-dimethylbiphenyl-4-yloxy)-5-methyl-5H-pyrrolo[3,2-d]pyrimidin-2-ylamino) benzonitrile] | < 1 nM | > 10 nM
Cc1cc(-c2ccc(C(N)=O)cc2F)cc(C)c1Oc1nc(Nc2ccc(C#N)cc2)nc2ncn(C)c12 [Example 55, 4′-(2-(4-Cyanophenylamino)-7-methyl-7H-purin-6-yloxy)-2-fluoro-3′,5′-dimethylbiphenyl-4-carboxamide] | 1 to 10 nM | 1 to 10 nM
Cc1cc(-c2ccc(C(N)=O)cc2F)cc(C)c1Oc1nc(Nc2ccc(C#N)cc2)nc2c1ncn2C [Example 56, 4′-(2-(4-Cyanophenylamino)-9-methyl-9H-purin-6-yloxy)-2-fluoro-3′,5′-dimethylbiphenyl-4-carboxamide] | 1 to 10 nM | 1 to 10 nM

SMILES | EC50 (wild type HIV-1) | EC50 (HIV-1 K103N-L100I mutant)
Cc1cc(-c2ccnnc2)cc(C)c1Oc1nc(Nc2ccc(C#N)cc2)nc2ccn(C)c12 [Example 57, 4-(4-(2,6-dimethyl-4-(pyridazin-4-yl)phenoxy)-5-methyl-5H-pyrrolo[3,2-d]pyrimidin-2-ylamino) benzonitrile] | < 1 nM | 1 to 10 nM
Cc1cc(-c2ccnnc2)cc(C)c1Oc1nc(Nc2ccc(C#N)cc2)nc2ncn(C)c12 [Example 58, 4-(6-(2,6-Dimethyl-4-(pyridazin-4-yl)phenoxy)-7-methyl-7H-purin-2-ylamino)benzonitrile] | 1 to 10 nM | 1 to 10 nM
Cc1cc(-c2ccnnc2)cc(C)c1Oc1nc(Nc2ccc(C#N)cc2)nc2c1ncn2C [Example 59, 4-(6-(2,6-Dimethyl-4-(pyridazin-4-yl)phenoxy)-9-methyl-9H-purin-2-ylamino)benzonitrile] | 1 to 10 nM | > 10 nM
Cc1cc(-c2ccc(C(N)=O)nc2)cc(C)c1Oc1nc(Nc2ccc(C#N)cc2)nc2ccn(C)c12 [Example 60, 5-(4-(2-(4-Cyanophenylamino)-5-methyl-5H-pyrrolo[3,2-d]pyrimidin-4-yloxy)-3,5-dimethyl-phenyl)picolinamide] | 1 to 10 nM | > 10 nM
Cc1cc(-c2ccc(F)cc2)cc(C)c1Oc1nc(Nc2ccc(C#N)cc2)nc2ccn(C)c12 [Example 62, 4-(4-(4′-fluoro-3,5-dimethylbiphenyl-4-yloxy)-5-methyl-5H-pyrrolo[3,2-d]pyrimidin-2-ylamino) benzonitrile] | 1 to 10 nM | > 10 nM
Cc1cc(-c2ccc(F)c(C#N)c2)cc(C)c1Oc1nc(Nc2ccc(C#N)cc2)nc2ccn(C)c12 [Example 63, 4′-(2-(4-cyanophenylamino)-5-methyl-5H-pyrrolo[3,2-d]pyrimidin-4-yloxy)-4-fluoro-3′,5′-dimethylbiphenyl-3-carbonitrile] | < 1 nM | 1 to 10 nM
Cc1cc(-c2cnccc2C#N)cc(C)c1Oc1nc(Nc2ccc(C#N)cc2)nc2ccn(C)c12 [Example 64, 3-(4-(2-(4-cyanophenylamino)-5-methyl-5H-pyrrolo[3,2-d]pyrimidin-4-yloxy)-3,5-dimethylphenyl) isonicotinonitrile] | < 1 nM | < 1 nM
Cc1cc(-c2cc(F)cc(F)c2)cc(C)c1Oc1nc(Nc2ccc(C#N)cc2)nc2ccn(C)c12 [Example 65, 4-(4-(3′,5′-difluoro-3,5-dimethylbiphenyl-4-yloxy)-5-methyl-5H-pyrrolo[3,2-d]pyrimidin-2-ylamino) benzonitrile] | < 1 nM | > 10 nM
Cc1cc(-c2cc(F)c(F)c(F)c2)cc(C)c1Oc1nc(Nc2ccc(C#N)cc2)nc2ccn(C)c12 [Example 66] | < 1 nM | 1 to 10 nM
COc1c(F)cc(F)cc1-c1cc(C)c(Oc2nc(Nc3ccc(C#N)cc3)nc3ccn(C)c23)c(C)c1 [Example 67, 4-(4-(3′,5′-difluoro-2′-methoxy-3,5-dimethylbiphenyl-4-yloxy)-5-methyl-5H-pyrrolo[3,2-d]pyrimidin-2-ylamino) benzonitrile] | < 1 nM | > 10 nM
Cc1cc(-c2ccc3c(c2)OCCO3)cc(C)c1Oc1nc(Nc2ccc(C#N)cc2)nc2ccn(C)c12 [Example 68, 4-(4-(4-(2,3-dihydrobenzo [b][1,4]dioxin-6-yl)-2,6-dimethylbipheoxy)-5-methyl-5H-pyrrolo[3,2-d]pyrimidin-2-ylamino) benzonitrile] | < 1 nM | > 10 nM
Cc1cc(-c2ccc3c(c2)OCO3)cc(C)c1Oc1nc(Nc2ccc(C#N)cc2)nc2ccn(C)c12 [Example 69, 4-(4-(4-(benzo[d][1,3]dioxol-5-yl)-2,6-dimethylbiphenoxy)-5-methyl-5H-pyrrolo[3,2-d]pyrimidin-2-ylamino) benzonitrile] | 1 to 10 nM | > 10 nM
Cc1cc(-c2ccc(S(N)(=O)=O)cc2)cc(C)c1Oc1nc(Nc2ccc(C#N)cc2)nc2ccn(C)c12 [Example 72, 4′-(2-(4-cyanophenylamino)-5-methyl-5H-pyrrolo[3,2-d]pyrimidin-4-yloxy)-3′,5′-dimethylbiphenyl-4-sulfonamide] | 1 to 10 nM | < 1 nM
Cc1cc(-c2ccccc2S(N)(=O)=O)cc(C)c1Oc1nc(Nc2ccc(C#N)cc2)nc2ccn(C)c12 [Example 73, 4′-(2-(4-cyanophenylamino)-5-methyl-5H-pyrrolo[3,2-d]pyrimidin-4-yloxy)-3′,5′-dimethylbiphenyl-2-sulfonamide] | > 10 nM | > 10 nM
Cc1cc(-c2ccccc2S(=O)(=O)NC(C)(C)C)cc(C)c1Oc1nc(Nc2ccc(C#N)cc2)nc2ccn(C)c12 [Example 74, N-tert-butyl-4′-(2-(4-cyanophenylamino)-5-methyl-5H-pyrrolo[3,2-d]pyrimidin-4-yloxy)-3′,5′-dimethylbiphenyl-2-sulfonamide] | > 10 nM | > 10 nM
Cc1cc(-c2ccc(C(=O)O)cc2)cc(C)c1Oc1nc(Nc2ccc(C#N)cc2)nc2ccn(C)c12 [Example 75, 4′-(2-(4-cyanophenylamino)-5-methyl-5H-pyrrolo[3,2-d]pyrimidin-4-yloxy)-3′,5′-dimethylbiphenyl-4-carboxylic acid] | < 1 nM | 1 to 10 nM
